Results on two compounds are retold here after the NIST ThermoML archive (doi:10.1021/acs.jced.6b00424).

Numbers after ± are expanded uncertainties.

The data set in a line: refractive index (Na D-line) (dimensionless). Particulars: 293.15 K, Liquid, Standard Abbe refractometry.

Consider `Cc1ccccc1` [toluene], for which the refractive index (100 kPa) was found to be 1.4966 ± 0.0007. On to `c1ccoc1` [furan], for which the refractive index (101.23 kPa) is 1.4218 ± 0.0004.
